Patent publication US11076597B2, “High stress resistant plant growth regulator and preparation method and use thereof” (SHANGHAI INSTITUTES FOR BIOLOGICAL SCIENCES, CHINESE …, priority 2015, dated 2021)
Read-outs that look alike come from different tables or passages of the source.

What was measured:
[1] = biological target: T1, PYL1 receptor-HAB1 protein phosphatase complex (Arabidopsis thaliana, UniProt Q8VZS8); assay: AlphaScreen assay: promotion of PYL1 receptor binding to PP2C protein phosphatase HAB1
T1 construct: made in house; host or cells: E. coli BL21 (DE3)
T1 sequence (Q8VZS8 36-211): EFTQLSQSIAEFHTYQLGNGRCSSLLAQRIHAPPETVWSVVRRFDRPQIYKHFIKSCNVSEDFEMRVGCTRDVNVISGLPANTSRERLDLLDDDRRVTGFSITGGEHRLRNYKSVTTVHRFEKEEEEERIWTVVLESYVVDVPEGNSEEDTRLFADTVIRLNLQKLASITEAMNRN
T1 sequence (Q9CAJ0 172-511 partner limits assumed): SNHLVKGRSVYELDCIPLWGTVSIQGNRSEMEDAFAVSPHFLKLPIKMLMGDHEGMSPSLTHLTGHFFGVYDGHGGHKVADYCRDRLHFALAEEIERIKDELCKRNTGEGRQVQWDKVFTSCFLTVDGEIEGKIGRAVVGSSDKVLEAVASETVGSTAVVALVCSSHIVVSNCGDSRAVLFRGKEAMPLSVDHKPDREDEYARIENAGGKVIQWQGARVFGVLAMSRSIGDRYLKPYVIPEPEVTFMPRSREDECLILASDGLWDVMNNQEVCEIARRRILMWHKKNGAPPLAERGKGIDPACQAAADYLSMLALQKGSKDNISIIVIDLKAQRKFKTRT
From the text: The construction method of recombinant plasmids for the Arabidopsis thaliana genes PYL1 (amino acid sequence 36-211), PYL2 (amino acid sequence 14-188) with dual tags of 6×His and SUMO sequence and the Arabidopsis thaliana gene HAB1 (amino acid sequence 172-511) with the Biotin tag sequence is described in detail in “A gate-latch-lock mechanism for hormone signaling by abscisic acid receptors” (Nature, Vol 462, 2009). The construction method of recombinant plasmids for PYR1 and PYL7 (whole gene coding sequence) and Soybean GmPYL6 and rice OsPYL2 with dual tags of 6×His and SUMO sequence is the same as that for Arabidopsis PYL2.
The above recombinant plasmid is transformed into competent cell of E. coli BL21 (DE3) (purchased from NEB company), and inoculated into 200 ml of LB liquid medium containing Amp resistance (purchased from OXOID company) and cultured overnight at 37° C. at 200 rpm; and inoculated into 2 L of LB liquid medium containing Amp resistance at a ratio of 1:50-1:100 for an extended culture, and cultured at 37° C., 200 rpm for 3-4 hours, and at a low temperature of 16° C. until OD600 is about 0.8-1.0. Recombinant plasmids for PYR1/PYL1/PYL2/PYL7/GmPYL6/OsPYL2 with dual tags of 6×His and SUMO sequence were induced overnight with 100 μM of IPTG while HAB1 recombinant plasmid with the Biotin tag sequence was induced simultaneously with 100 μM of IPTG and 40 μM of biotin.
After 16 hours of induction, the bacterial solution was centrifuged at 4000 rpm for 20 minutes at 4° C. in a low-speed high-capacity centrifuge, and the bacteria cells were collected. Bacteria cells were resuspended in 50 ml of extraction buffer (containing 20 mM Tris, pH 8.0, 200 mM NaCl and 10% (v/v) glycerol) for per 2 L of bacterial solution and then subjected to pressure-breaking at […] and 4° C. for 3-5 times. The broken cells were subjected to ultracentrifugation, centrifuged at 16000 rpm for 30 minutes, and this process was repeated twice. The supernatant was collected and subjected to an affinity chromatography column. […]

[2] = biological target: T1, PYL1 receptor-HAB1 protein phosphatase complex; assay: AlphaScreen assay, PYL1 receptor binding to HAB1; assay type: biochemical; details: fraction of the EC50 of ABA; FIG. 2b
Protocol: The AlphaScreen kit (available from Perkin Elmer) was used, and the method was as follows: a 10× buffer (50 mM MOPS, pH 7.4, 50 mM NaF, 50 mM CHAPS, 0.1 mg/ml bovine serum albumin) diluted at 1:10, each of 100 nM HAB1 with Biotin tag sequence and PYR1/PYL1/PYL2/PYL7/GmPYL6/OsPYL2 protein with dual tags of 6×His and SUMO sequences, corresponding concentrations of (+)-ABA/0224/0304/0706/0708/0713/0715/0428/NC0F4, and 5 μg/ml donor beads and acceptor beads (available from Perkin Elmer) were contained in 150 μl of experimental system. After incubating for 1.5 hours at room temperature in the dark, it was placed into an Envision Plate Reader (available from Perkin Elmer) under the programmed AlphaScreen procedure for readings.
AlphaScreen technology was used to test the ability of the compounds of the present invention to promote PYL receptor binding to PP2C protein phosphatase (HAB1).

[3] = FIG. 2b, 6×His-SUMO-tagged PYL1 (aa 36-211), Biotin-tagged HAB1 (aa 172-511), 100 nM each, pH 7.4, 1.5 h room temperature, read-out: EC50

Row | EC50 value with PYL1 receptor-HAB1 complex as fraction of that of ABA [2] | EC50 [1, 3] [nM] | SMILES | EC50 [1] [nM]
1 |  |  | CC1=CC(=O)CC(C)(C)[C@@]1(O)/C=C/C(C)=C\C(=O)O [ABA, Abscisic Acid, reference compound] | 1200
2 | 1/7 | 167 | CCCN1C(=O)OC(C)(C)c2cc(NS(=O)(=O)Cc3c(F)c(F)c(C)c(F)c3F)ccc21 [Compound 0304] | 
3 | ⅛ | 149 | CCCN1C(=O)OC(C)c2cc(NS(=O)(=O)Cc3c(F)c(F)c(C)c(F)c3F)ccc21 (centres unmarked) [Compound 0224] | 
